What follows are molecules tested on human liver microsomes, metabolic stability half-life (assay: NCATS Human Liver Microsomal (HLM) Stability Profiling). Details: higher = more stable; screened at 1 µM (by protocol).
In short: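 Substrate depletion (in vitro t1/2): 1 µM compound with 0.5 mg/mL microsomes and NADPH regenerating system, phosphate buffer pH 7.4, 37 °C. Sampled at 0, 5, 10, 15, 30, 60 min into cold acetonitrile with albendazole internal standard for MS quantification.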

Structure (SMILES)	half-life [min]
CN(C(=O)c1ccc(F)cc1C(F)(F)F)C1CCN(c2nnc(-c3ccnn3C)c3ccccc23)CC1	30.3
CC1(C)OC[C@H](NC(=O)Nc2ccc(Br)cc2Br)[C@H](c2ccccc2)O1	1
CCOC(=O)c1cc(=O)c2c(OCC(COc3cccc4oc(C(=O)OCC)cc(=O)c34)OC(=O)[C@@H](N)CCCCN)cccc2o1	4.47
Cc1cccc(C=NNc2cc(N3CCOCC3)nc(OCCc3ccccn3)n2)c1	16
COc1ccc(C(=O)n2c(C)c(Cc3cccc(O[C@@H](C)C(=O)O)c3)c3cc(OC(F)(F)F)ccc32)cc1	> 120
COC(=O)C1=C(C)NC(C)=C(C(=O)O[C@@H]2CCCN(Cc3ccccc3)C2)[C@@H]1c1cccc([N+](=O)[O-])c1	1.93
O=C(Nc1cccc(-c2nc3ccccc3o2)c1)c1ccccc1Cl	9.1
Cc1ccc([S+](=O)([O-])NC2CCC(C)(C)CC2)cc1	4.82
CCc1cccc(CC)c1NC(=O)N1Cc2[nH]nc(NC(=O)c3ccc(N4CCN(C)CC4)cc3)c2C1	> 120
Cc1cnc(Nc2cccc(CN3CCOCC3)c2)nc1Nc1cccc(S(=O)(=O)NC(C)(C)C)c1	19.5
COc1ccc(CNC(=O)C2CCCN(c3nnc(C)c4c(C)n(-c5ccc(C)cc5)nc34)C2)cc1 (stereo not drawn)	5.53
C#C[C@]1(O)CC[C@H]2[C@@H]3CCC4=CC(=O)CCC4=C3C=C[C@@]21CC	38.2
CC1COC2(c3ccccc3Cl)c3cc(Cl)ccc3NC(=O)CN12 (stereo not drawn)	9.03
CCC1=c2cc(OC(=O)N3CCC(N4CCCCC4)CC3)ccc2=NC2=C3C=C4C(COC(=O)[C@]4(O)CC)C(=O)N3CC21 (stereo partly drawn)	> 120
CCC(C(=O)O)c1ccc(N2Cc3ccccc3C2=O)cc1 (stereo not drawn)	> 120
COc1ccc2nc([C@H]3CCN(Cc4cccc(C#N)c4)C3)[nH]c2c1	12.3
CCN(CC)C(C)C(=O)c1ccccc1 (stereo not drawn)	> 120
NC(=O)c1nnn(Cc2cc(Cl)c(C(=O)c3ccc(Cl)cc3)c(Cl)c2)c1N	> 120
CCc1noc(-c2ccc(NCc3ccccc3)c([N+](=O)[O-])c2)n1	4.39
CC1(C)CCC(CN2CCN(c3ccc(C(=O)NS(=O)(=O)c4ccc(NCC5CCOCC5)c([N+](=O)[O-])c4)c(Oc4cnc5[nH]ccc5c4)c3)CC2)=C(c2ccc(Cl)cc2)C1	32.8
Cn1c(=O)c2c(nc(CN3CCN(C(=O)C4CC4)CC3)n2Cc2ccccc2Cl)n(C)c1=O	24.1
O=C(Cc1ccc(-c2ccccc2)cc1)NC1CCC1	1.5
C#CCN(C)CCCOc1ccc(Cl)cc1Cl	3.52
COc1cc(C)c(/C=C/C(C)=C/C=C/C(C)=C/C(=O)O)c(C)c1C	32
Cc1ccc(C)c(N2CCN(CCCNC(=O)c3ccc4nc(C(C)C)oc4c3)CC2)c1	13.8

Structure (SMILES)	half-life [min]
O=C(CCBr)N1CCN(C(=O)CCBr)CC1	> 120
c1ccc(-c2csc(N3CCOCC3)n2)cc1	3.95
CN1[C@@H]2CC[C@H]1CC(OC(=O)c1c[nH]c3ccccc13)C2 (stereo partly drawn)	> 120
CC(C)COC[C@H](CN(Cc1ccccc1)c1ccccc1)N1CCCC1	21.1
NC(=O)c1c(OCc2c(F)cc(Br)cc2F)nsc1NC(=O)NCCCCN1CCCC1	> 120
COC(=O)/C=C(\C)OP(=O)(OC)OC	19.9
COP(=S)(OC)SCn1nnc2ccccc2c1=O	8.16
COCCCNC(=O)CCC(=O)NNc1nc2ccccc2c2nc(-c3ccccc3)nn12	> 120
CCOc1cccc(NC(=O)c2ccc(N3CCCC3)c(C(F)(F)F)c2)c1	23
CCOc1ccc(-n2c(C(C)N(Cc3cccnc3)C(=O)Cc3ccc(F)c(C(F)(F)F)c3)nc3ncccc3c2=O)cc1 (stereo not drawn)	4.89
Nc1nc(NCC2CCC(CNS(=O)(=O)c3cccc4ccccc34)CC2)nc2ccccc12 (stereo not drawn)	1.35
COc1ccc(-c2ccc3ncc4c(c3c2)n(-c2ccc(N3CCNCC3)c(C(F)(F)F)c2)c(=O)n4C)cn1	36.3
c1cc(-c2cc(C3CCNCC3)[nH]n2)ccn1	72.6
N[C@@H](Cc1ccc(Oc2cc(I)c(O)c(I)c2)c(I)c1)C(=O)O	> 120
CNC(=O)c1cnn(-c2nc(N)c3ncn([C@@H]4O[C@H](CO)[C@@H](O)[C@H]4O)c3n2)c1	> 120
Cc1c(C)n(Cc2ccccc2)c2ccc(C(=O)OCCN(C)C)cc12	11.1
CCCCCOC(=O)Nc1nc(=O)n([C@@H]2O[C@H](C)[C@@H](O)[C@H]2O)cc1F	> 120
CC(C)COC(=O)c1ccc(N)cc1	11.4
Nc1c(I)cc(I)c(C(=O)N(CCC(=O)O)c2ccccc2)c1I	> 120
CN(C)[C@@H]1C(=O)C(C(N)=O)=C(O)[C@@]2(O)C(=O)C3=C(O)c4c(O)ccc(Cl)c4[C@@H](O)[C@H]3C[C@@H]12	> 120
CN(C)CC#CCCC(=O)C(O)(c1ccccc1)C1CCC1 (stereo not drawn)	102
Cc1ccc(S(=O)(=O)Nc2ccccc2N2CCCCC2)cc1	3.04
O=C(O)c1cccc(CN2C(=O)/C(=C(\c3ccccc3)c3ccc(Cl)cc3)c3ccccc32)c1	> 120
OCc1ccccn1	> 120
CC(C)(C)c1coc([C@@H]2COCCN2Cc2cccc(C#N)c2)n1	10.4

Structure (SMILES)	half-life [min]
Cc1ccc(C2=Nc3ccccc3N(CC(=O)Nc3ccccc3F)C(=O)C2)cc1C	6.23
CN(C)CCN(Cc1ccc(Cl)cc1)c1ccccn1	18.8
N#Cc1cccc(CN2CCOC[C@H]2c2ncc(-c3ccc(F)cc3)[nH]2)c1	3.38
CC(C)NC[C@H](O)c1ccc2ccccc2c1	18.8
c1ccc(N2CCN(CCc3nn[nH]n3)CC2)cc1	> 120
COc1ccc(-n2nc3c(N4CCCC(C(=O)NCc5ccccc5C)C4)nnc(C)c3c2C)cc1 (stereo not drawn)	2.48
FC(F)c1nc2ccccc2n1-c1nc(N2CCOCC2)nc(N2CCOCC2)n1	25.4
Cc1ccc(-c2noc([C@@H]3Cc4nc[nH]c4CN3Cc3cccc(C#N)c3)n2)cc1	11.4
Cc1cn(C[C@H](N)C(=O)O)c(=O)n(Cc2ccsc2C(=O)O)c1=O	53.1
O=c1cc(OCc2ccc(F)cc2)ccn1-c1ccc(OCCN2CCCC2)cc1	> 120
CN(C)C(CCOc1cccc2ccccc12)c1ccccc1 (stereo not drawn)	12.8
CCN1CCN(Cc2ccc(NC(=O)c3ccc(C)c(/C=C/c4cnc5[nH]ccc5c4OC)c3)cc2C(F)(F)F)CC1	> 120
COc1ccc([C@@H]2Sc3ccccc3NC(=O)[C@@H]2O)cc1	67.5
CCN1CCN(C(=O)c2ccc3c(c2)N(Cc2cc(C)ccc2C)C(=O)c2ccccc2S3(=O)=O)CC1	1.24
CCOC(=O)NNc1nncc2ccccc12	97.1
Nc1ccc(N=Nc2ccccc2)c(N)n1	7.45
COc1ccc(Nc2nnc(-c3ccc(C)c(S(=O)(=O)NCc4nc5ccccc5[nH]4)c3)c3ccccc23)cc1	5.8
NC(=O)c1ccc(F)c2c1C[C@@H](N(C1CCC1)C1CCC1)CO2	15
CC(C)c1c(NC(=O)Nc2ccc(Cl)cc2)c(=O)n(-c2ccccc2)n1C	> 120
C#CCN(Cc1cc2c(=O)n(C)c(CN3CCN(C)CC3)nc2cc1Cl)c1ccc(C(=O)NCc2cccnc2)cc1	4.83
CC(=O)[C@@]1(O)CC[C@H]2C3CCC4=CC(=O)CC[C@]4(C)C3CC[C@@]21C (stereo partly drawn)	9.86
O=C(CSc1nc2ccccc2n1Cc1cccc(Cl)c1)N1CCN(c2ccc(F)cc2)CC1	0.81
CNS(=O)(=O)CCc1ccc2[nH]cc(C3CCN(C)CC3)c2c1	> 120
